Square brackets hold non-standard residues; d marks the D form. Peptide text beside a SMILES is read from it. d2Nal = N[C@H](Cc1ccc2ccccc2c1)C(=O)O; 3Amb = NCc1cccc(C(=O)O)c1
Species on record: Rattus norvegicus
Assay: In vitro release of growth hormone by rat pituitary assay
Format: functional

SMILES | EC50 [µM]
NCCCC[C@H](NC(=O)[C@@H](Cc1ccccc1)NC(=O)[C@@H](Cc1ccc2ccccc2c1)NC(=O)c1cc(CN)cs1)C(N)=O | 0.675
NCCCC[C@H](NC(=O)[C@@H](Cc1ccccc1)NC(=O)[C@@H](Cc1ccc2ccccc2c1)NC(=O)c1cccc(CN)c1)C(N)=O (H-[3Amb][d2Nal][dF]K-NH2) | 0.007
NCCCC[C@H](NC(=O)[C@@H](Cc1ccccc1)NC(=O)[C@@H](Cc1ccc2ccccc2c1)NC(=O)c1sccc1CN)C(N)=O | 0.027
NCCCC[C@H](NC(=O)[C@@H](Cc1ccccc1)NC(=O)[C@@H](Cc1ccc2ccccc2c1)NC(=O)c1ccccc1CN)C(N)=O | 0.085
NCCCC[C@H](NC(=O)[C@@H](Cc1ccccc1)NC(=O)[C@@H](Cc1ccc2ccccc2c1)NC(=O)c1ccc(CN)s1)C(N)=O | 0.21
C[C@H](N)C(=O)N[C@@H](Cc1c[nH]cn1)C(=O)N[C@H](Cc1ccc2ccccc2c1)C(=O)N[C@H](Cc1ccccc1)C(=O)N[C@@H](CCCCN)C(N)=O | 0.006
